Reference: PMC10458458, “Characterization of Anticancer Effects of the Analogs of DJ4, a Novel Selective Inhibitor of ROCK and MRCK Kinases” (Pharmaceuticals, 2023)

Legend:
[1] = target: T1, FLT3 (Homo sapiens, UniProt P36888); test: KINOMEscan competition binding assay; details: FLT3, 10 µM
T1 construct: purchased DiscoverX Corporation (Lead Hunter Discovery Services, KINOMEscan)
From the text: (§1) To examine specificity of DJ4 to different human kinases, we performed a KINOMEscan profiling assay (DiscoverX, Fremont, CA, USA). The KINOMEscan assay consists of a panel of more than 480 kinases of different classes (TK/TKL/STE/CK1/AGC/CAMK/CMGC/others), including clinically relevant mutants, atypical kinases, lipid, and pathogen kinases. […] However, we also recognized the limitations of DJ4 that preclude its clinical development and the need for further optimization of the DJ4 chemotype.
(§2) The KINOMEscan®, in vitro competition binding assay, was performed by Lead Hunter Discovery Services (DiscoverX Corporation, Fremont, CA, USA) to determine the kinase specificity of DJ4, a novel kinase inhibitor [19, 44]. The KINOMEscan® panel consists of more than 480 kinases, including clinically relevant mutants, lipid, atypical, and pathogen kinases, plus a growing panel of activation-state specific assays. The primary screen was performed using a single concentration of 10 µM, and the results for DJ4 binding interactions are reported as percent of control (%Ctrl). The %Ctrl is calculated as follows: [(DJ4 signal-positive control signal)/(negative control DMSO signal-positive control signal)] x […]. The human kinome tree annotation for DJ4 is plotted with Reaction Biology’s Kinase Mapper and KinMap web interface tool http://kinhub.org/kinmap (accessed on 09 January 2023).

[2] = target: T2, MRCK1 (Homo sapiens, UniProt Q5VT25); test: KINOMEscan competition binding assay; details: MRCK1, 10 µM
T2 construct: purchased DiscoverX Corporation (Lead Hunter Discovery Services, KINOMEscan)
From the text: as §1, §2

T1 sequence (P36888 27-993): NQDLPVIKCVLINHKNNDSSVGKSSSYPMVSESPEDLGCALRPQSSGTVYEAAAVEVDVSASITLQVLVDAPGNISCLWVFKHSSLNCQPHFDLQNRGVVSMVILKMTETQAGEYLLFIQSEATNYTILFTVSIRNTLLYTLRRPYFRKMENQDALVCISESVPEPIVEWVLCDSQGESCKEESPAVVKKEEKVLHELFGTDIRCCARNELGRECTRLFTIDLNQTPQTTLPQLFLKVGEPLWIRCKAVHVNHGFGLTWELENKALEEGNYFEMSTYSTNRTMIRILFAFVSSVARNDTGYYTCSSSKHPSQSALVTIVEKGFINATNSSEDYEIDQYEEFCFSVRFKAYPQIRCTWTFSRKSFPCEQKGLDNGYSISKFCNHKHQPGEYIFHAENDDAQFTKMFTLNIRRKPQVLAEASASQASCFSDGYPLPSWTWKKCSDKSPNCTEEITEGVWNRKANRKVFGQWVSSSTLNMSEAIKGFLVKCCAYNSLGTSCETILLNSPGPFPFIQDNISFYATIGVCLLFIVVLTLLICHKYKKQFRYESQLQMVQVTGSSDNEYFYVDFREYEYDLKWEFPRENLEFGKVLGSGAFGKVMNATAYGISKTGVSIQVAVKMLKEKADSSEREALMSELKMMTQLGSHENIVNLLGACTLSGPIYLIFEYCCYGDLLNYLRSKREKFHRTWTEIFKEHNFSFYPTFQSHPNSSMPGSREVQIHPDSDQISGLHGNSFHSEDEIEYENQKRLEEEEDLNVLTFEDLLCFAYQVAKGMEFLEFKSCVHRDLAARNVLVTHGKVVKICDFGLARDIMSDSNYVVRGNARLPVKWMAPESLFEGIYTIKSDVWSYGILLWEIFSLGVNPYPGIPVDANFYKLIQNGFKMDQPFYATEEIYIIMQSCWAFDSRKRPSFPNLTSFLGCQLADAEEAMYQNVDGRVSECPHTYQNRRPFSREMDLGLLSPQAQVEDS
T2 sequence (Q5VT25 whole entry): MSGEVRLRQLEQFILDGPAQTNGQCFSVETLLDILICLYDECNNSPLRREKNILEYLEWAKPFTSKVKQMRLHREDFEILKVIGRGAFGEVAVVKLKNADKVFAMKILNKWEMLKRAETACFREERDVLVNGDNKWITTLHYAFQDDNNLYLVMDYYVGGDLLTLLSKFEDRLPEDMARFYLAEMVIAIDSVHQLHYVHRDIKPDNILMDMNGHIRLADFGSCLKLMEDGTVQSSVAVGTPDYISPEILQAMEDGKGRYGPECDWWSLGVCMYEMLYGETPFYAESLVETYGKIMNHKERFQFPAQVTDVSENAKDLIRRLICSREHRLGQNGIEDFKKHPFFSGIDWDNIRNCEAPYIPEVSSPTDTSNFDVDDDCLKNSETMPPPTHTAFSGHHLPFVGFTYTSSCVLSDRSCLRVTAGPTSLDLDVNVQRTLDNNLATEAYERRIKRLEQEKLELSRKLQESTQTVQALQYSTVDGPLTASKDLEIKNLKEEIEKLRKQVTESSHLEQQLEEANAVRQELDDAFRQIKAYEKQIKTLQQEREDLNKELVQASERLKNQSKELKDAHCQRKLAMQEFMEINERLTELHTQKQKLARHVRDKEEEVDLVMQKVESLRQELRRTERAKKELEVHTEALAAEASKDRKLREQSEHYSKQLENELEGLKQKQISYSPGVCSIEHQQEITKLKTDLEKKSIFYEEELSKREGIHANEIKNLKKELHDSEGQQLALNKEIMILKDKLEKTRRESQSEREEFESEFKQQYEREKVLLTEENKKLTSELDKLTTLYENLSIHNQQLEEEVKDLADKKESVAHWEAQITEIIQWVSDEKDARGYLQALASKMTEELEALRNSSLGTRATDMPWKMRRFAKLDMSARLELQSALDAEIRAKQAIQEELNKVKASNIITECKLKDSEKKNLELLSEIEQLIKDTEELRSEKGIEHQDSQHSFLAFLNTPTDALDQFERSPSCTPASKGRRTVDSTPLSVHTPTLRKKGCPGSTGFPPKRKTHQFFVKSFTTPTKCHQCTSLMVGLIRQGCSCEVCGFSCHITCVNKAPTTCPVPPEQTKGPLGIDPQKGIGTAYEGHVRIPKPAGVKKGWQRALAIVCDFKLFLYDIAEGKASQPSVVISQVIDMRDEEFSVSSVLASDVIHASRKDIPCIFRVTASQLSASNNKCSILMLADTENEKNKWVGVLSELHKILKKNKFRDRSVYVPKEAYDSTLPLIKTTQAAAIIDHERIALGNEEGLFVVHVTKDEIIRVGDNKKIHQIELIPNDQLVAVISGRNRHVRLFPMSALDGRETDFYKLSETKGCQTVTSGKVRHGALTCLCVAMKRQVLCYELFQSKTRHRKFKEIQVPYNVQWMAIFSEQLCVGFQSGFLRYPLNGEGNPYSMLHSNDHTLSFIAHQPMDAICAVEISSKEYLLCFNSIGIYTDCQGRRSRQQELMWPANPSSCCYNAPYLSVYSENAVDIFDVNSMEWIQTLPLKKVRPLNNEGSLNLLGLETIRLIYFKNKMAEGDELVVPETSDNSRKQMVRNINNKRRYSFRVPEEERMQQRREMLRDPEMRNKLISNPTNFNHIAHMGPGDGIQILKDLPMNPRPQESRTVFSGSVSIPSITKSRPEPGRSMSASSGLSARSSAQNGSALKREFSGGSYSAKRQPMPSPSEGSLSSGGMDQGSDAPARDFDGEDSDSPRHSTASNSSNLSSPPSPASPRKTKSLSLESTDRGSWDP

## O=C1N/C(=N\CCc2ccccc2)S/C1=C/c1c[nH]c2ncccc12 [DJ4]
[1]
  inhibition at 10 µM: > 98%
[2]
  inhibition at 10 µM: > 98%
